The conditions of data set [1]: compared with etoposide; cited from earlier work.
Data set [2] relates to Es-1 sulfatase. The data set is described as follows: Substrate specificity: hydrolysis of etoposide derivatives (TLC). In kind it is biochemical, Streptomyces griseorubiginosus S980-14. Particulars: 0.6 u enzyme, 50 mM Tris-HCl pH 7.5, 37°C for 18 hours, silica gel TLC. As for the experimental part:
• (a) Optimum pH. The stock enzyme solution (0.6 u in 50 µl of 50 mM Tris-HCl, pH 7.5) was added to 100 µl each of the following buffers: 500 mM sodium acetate (pH 4.0-5.5), 500 mM Tris-maleate (pH 5.5-7.5), 500 mM Tris-HCl (pH 7.5-9.0), and 500 mM glycine-NaoH (pH 9.0-10.0). The substrate, p-nitrophenylsulfate, was dissolved in each of the above buffers (1 mg/ml). The enzyme-buffer solution (150 µl) was mixed with 50 µl of the substrate solution in the same buffer as the enzyme, and the mixture was incubated for 30 minutes at 37°C. The reaction was quenched by addition of 100 µl of 0.2 N sodium hydroxide solution. The enzyme activity in each buffer was determined spectrophotometrically by UV at 415 nm. […] The stock enzyme solution was dialyzed against water to remove salts. The dialyzed solution (10 µl) was mixed with 40 µl of 50 mM Tris-HCl buffer (pH 7.5). An aliquot (10 µl) of this solution was mixed with 40 µl each of the buffer listed in (a) and incubated for 30 minutes at 30°C. To this solution (50 µl) were added 100 µl of 500 mM Tris-HCl (pH 9.0) and 50 µl of substrate in water (1 mg/ml), and the mixture was incubated at 37°C for 30 minutes to determine the residual enzyme activity. […] Enzyme (0.6 u) in 150 µl of 50 mM Tris-HCl (pH 8.5) was incubated with p-nitrophenylsulfate in the same buffer (1 mg/ml, 50 µl) for 30 minutes at various temperatures. […] Enzyme preparations (0.6 u) in 50 mM Tris-HCl (150 µl, pH 8.5) were incubated for 15 minutes at various temperatures and then cooled in an ice bath. p-Nitrophenylsulfate in the same buffer (1 mg/ml, 50 µl) was added to the enzyme solution, and the mixture was incubated for 30 minutes at 37°C. […] Fifty µl of enzyme solution (0.6 u in 50 mM Tris-HCl, pH 8.5), 80 µl of 50 mM Tris-HCl (pH 8.5), 50 µl of p-nitrophenyl sulfate (1 mg/ml in same buffer), and 20 µl of ion (10 mM) were mixed. The solution was incubated for 30 minutes at 37°C. p-Nitrophenol released was spectrophotometrically assayed by UV at 415 nm. […] The protocol used in (e) was followed with the exception that 1 mM of an enzyme inhibitor was used instead of a metal ion. […] The protocol used in (e) was followed, except that 5 mM of a salt was used instead of 10 mM of a metal ion. […] Four etoposide derivatives were tested as substrate for the sulfatase of the invention. The substrates are: etoposide 4'-sulfate (III), 2'',3''-di-O-acetyl-etoposide-4'-sulfate (IV), etoposide 2''-sulfate (V), and etoposide 3''-sulfate (VI). […] After 18 hours, 100 µl of methanol was added, and 100 µl of sample was analyzed on a silica gel TLC plate using a solvent system consisting of chloroform-methanol (10:1 v/v). […]

Data set [3] concerns Es-1 sulfatase. Put plainly: Substrate specificity: hydrolysis of BU-3285T (TLC, UV densitometry). The data set is classed as biochemical, Streptomyces griseorubiginosus S980-14. Particulars: 0.6 u Es-1 sulfatase, pH 8.5, 18 hours at 37°C, UV densitometry at 254 nm. As for the experimental part:
(§1) • (a) Optimum pH. The stock enzyme solution (0.6 u in 50 µl of 50 mM Tris-HCl, pH 7.5) was added to 100 µl each of the following buffers: 500 mM sodium acetate (pH 4.0-5.5), 500 mM Tris-maleate (pH 5.5-7.5), 500 mM Tris-HCl (pH 7.5-9.0), and 500 mM glycine-NaoH (pH 9.0-10.0). The substrate, p-nitrophenylsulfate, was dissolved in each of the above buffers (1 mg/ml). The enzyme-buffer solution (150 µl) was mixed with 50 µl of the substrate solution in the same buffer as the enzyme, and the mixture was incubated for 30 minutes at 37°C. The reaction was quenched by addition of 100 µl of 0.2 N sodium hydroxide solution. The enzyme activity in each buffer was determined spectrophotometrically by UV at 415 nm. […] The stock enzyme solution was dialyzed against water to remove salts. The dialyzed solution (10 µl) was mixed with 40 µl of 50 mM Tris-HCl buffer (pH 7.5). An aliquot (10 µl) of this solution was mixed with 40 µl each of the buffer listed in (a) and incubated for 30 minutes at 30°C. To this solution (50 µl) were added 100 µl of 500 mM Tris-HCl (pH 9.0) and 50 µl of substrate in water (1 mg/ml), and the mixture was incubated at 37°C for 30 minutes to determine the residual enzyme activity. […] After 18 hours, 100 µl of methanol was added, and 100 µl of sample was analyzed on a silica gel TLC plate using a solvent system consisting of chloroform-methanol (10:1 v/v). […]

Data set [4] has as its system Es-1 sulfatase. The data set is described as follows: Effect of ions / EDTA treatment and Ca2+ recovery of sulfatase activity. In kind it is biochemical, Streptomyces griseorubiginosus S980-14. The procedure: • (a) Optimum pH. The stock enzyme solution (0.6 u in 50 µl of 50 mM Tris-HCl, pH 7.5) was added to 100 µl each of the following buffers: 500 mM sodium acetate (pH 4.0-5.5), 500 mM Tris-maleate (pH 5.5-7.5), 500 mM Tris-HCl (pH 7.5-9.0), and 500 mM glycine-NaoH (pH 9.0-10.0). The substrate, p-nitrophenylsulfate, was dissolved in each of the above buffers (1 mg/ml). The enzyme-buffer solution (150 µl) was mixed with 50 µl of the substrate solution in the same buffer as the enzyme, and the mixture was incubated for 30 minutes at 37°C. The reaction was quenched by addition of 100 µl of 0.2 N sodium hydroxide solution. The enzyme activity in each buffer was determined spectrophotometrically by UV at 415 nm. […] The stock enzyme solution was dialyzed against water to remove salts. The dialyzed solution (10 µl) was mixed with 40 µl of 50 mM Tris-HCl buffer (pH 7.5). An aliquot (10 µl) of this solution was mixed with 40 µl each of the buffer listed in (a) and incubated for 30 minutes at 30°C. To this solution (50 µl) were added 100 µl of 500 mM Tris-HCl (pH 9.0) and 50 µl of substrate in water (1 mg/ml), and the mixture was incubated at 37°C for 30 minutes to determine the residual enzyme activity. […] Enzyme (0.6 u) in 150 µl of 50 mM Tris-HCl (pH 8.5) was incubated with p-nitrophenylsulfate in the same buffer (1 mg/ml, 50 µl) for 30 minutes at various temperatures. […] Enzyme preparations (0.6 u) in 50 mM Tris-HCl (150 µl, pH 8.5) were incubated for 15 minutes at various temperatures and then cooled in an ice bath. p-Nitrophenylsulfate in the same buffer (1 mg/ml, 50 µl) was added to the enzyme solution, and the mixture was incubated for 30 minutes at 37°C. […] Fifty µl of enzyme solution (0.6 u in 50 mM Tris-HCl, pH 8.5), 80 µl of 50 mM Tris-HCl (pH 8.5), 50 µl of p-nitrophenyl sulfate (1 mg/ml in same buffer), and 20 µl of ion (10 mM) were mixed. […] After 18 hours, 100 µl of methanol was added, and 100 µl of sample was analyzed on a silica gel TLC plate using a solvent system consisting of chloroform-methanol (10:1 v/v). […]

Data set [5] deals with Es-1 sulfatase. The data set is described as follows: Effect of salts on sulfatase activity. In kind it is biochemical, Streptomyces griseorubiginosus S980-14. Particulars: 5 mM of a salt, 30 minutes at 37°C, pH 8.5. As for the experimental part:
as §1

For the compound `COc1cc([C@@H]2c3cc4c(cc3[C@@H](O[C@@H]3O[C@@H]5CO[C@@H](C)O[C@H]5[C@H](O)[C@H]3O)[C@H]3COC(=O)[C@H]23)OCO4)cc(OC)c1OS(=O)(=O)O` [(III), etoposide 4'-sulfate], the cytotoxicity entry in data set [1] was “much less cytotoxic than etoposide itself”. In addition, the “substrate for the enzyme” value with Es-1 sulfatase [2] was “are substrates”.
`COc1cc(C2c3cc4c(cc3C(OC3OC5COC(C)OC5C(OC(C)=O)C3OC(C)=O)C3COC(=O)C23)OCO4)cc(OC)c1OS(=O)(=O)O` (centres unmarked) [(IV), 2'',3''-di-O-acetyl-etoposide-4'-sulfate]: in the data set with Es-1 sulfatase [2], the “substrate for the enzyme” value is “are substrates”.
The same measure, in the same setting: with `COc1cc(C2c3cc4c(cc3C(OC3OC5COC(C)OC5C(O)C3OS(=O)(=O)O)C3COC(=O)C23)OCO4)cc(OC)c1O` (centres unmarked) [(V), etoposide 2''-sulfate] the entry was “are not”; with `COc1cc(C2c3cc4c(cc3C(OC3OC5COC(C)OC5C(OS(=O)(=O)O)C3O)C3COC(=O)C23)OCO4)cc(OC)c1O` (centres unmarked) [(VI), etoposide 3''-sulfate], “are not”.
With `CCCCC/C=C/C=C\C=C/C(O)C(C)C(C/C=C/C1OC(=O)C=CC1O)OS(=O)(=O)O` (centres unmarked) [BU-3285T], the “conversion to its desulfated derivative” value in the data set on Es-1 sulfatase [3] was “approximately 70%”.
Turning to `[Ca+2]` [Ca⁺⁺], the sulfatase activity restored in the data set on Es-1 sulfatase [4] (addition of 1 mM of Ca⁺⁺ to the EDTA treated enzyme) amounted to 95%. Besides, the sulfatase activity level result with Es-1 sulfatase [4] (calcium ion concentrations over 1 mM added to EDTA treated enzyme) is recorded as “close to the original level”.
As for `O=C(O)CN(CCN(CC(=O)O)CC(=O)O)CC(=O)O` [EDTA], in the data set on Es-1 sulfatase [4] (enzyme treated with 10 mM of EDTA followed by dialysis against water at 4°C), the sulfatase activity result is on record as “disappeared”.
`O=P(O)(O)O` [phosphate ion]: the “sulfatase activity (effect of salts)” value in the data set with Es-1 sulfatase [5] is on record as “strongly inhibited”.
Still for that read-out and setting: with `[Cl-].[Na+]` [sodium chloride] the entry was “strongly inhibited”.
